Source: patent US20230015823A1, “METHODS OF ADMINISTERING VOXELOTOR” (Global Blood Therapeutics, Inc., priority 2019, published 2023)
In brackets after ≈: the same amount, converted by molar mass. Entries after “also recorded” stand apart in the source; their conditions may differ.

Tests used:
rats = assay: Fertility and early embryonic development study; assay type: in vivo, rat
Description: In a fertility and early embryonic development study, voxelotor was administered orally to rats at 15, 50, and 250 mg/kg/day. Males were dosed 28 days prior to mating through cohabitation and females were dosed 14 days prior to mating through gestation Day 7.

P-gp = P-gp (Homo sapiens, UniProt P08183); assay: Effect of voxelotor on P-gp: concomitant digoxin; assay type: in vivo; conditions: concomitant use
OAT3 = OAT3 (Homo sapiens, UniProt Q8TCC7); assay: In vitro transporter studies: OAT3; assay type: in vitro ADME
CYP2C19 = target: T1, CYP2C19 (Homo sapiens, UniProt P33261); assay: Effect of voxelotor on PK of CYP2C19 probe substrate omeprazole in healthy subjects; assay type: in vivo
T1 construct: endogenous in cells; host or cells: healthy subjects, in vivo
Description: (§1) During Period 1, subjects received a single dose of caffeine 100 mg, warfarin sodium 10 mg+vitamin K 10 mg, omeprazole 20 mg, and midazolam hydrochloride 2 mg on Day 1. During Period 2, subjects received voxelotor 900 mg QD on Days 1 and 2 followed by 600 mg QD on Day 3, a single dose of caffeine 100 mg, warfarin sodium 10 mg+vitamin K 10 mg, omeprazole 20 mg, and midazolam hydrochloride 2 mg on Day 4, and voxelotor 600 mg QD on Days 4 through 7.
(§2) Whole blood and plasma concentrations of voxelotor and plasma concentrations of caffeine, paraxanthine, S-warfarin, omeprazole, 5-hydroxyomeprazole, midazolam, and 1-hydroxymidazolam were determined using validated assays.

pregnant rats = assay: Pre- and postnatal development study in pregnant rats; assay type: in vivo, rat
Description: In a pre- and postnatal development study, voxelotor was administered orally to pregnant rats at 15, 50 and 250 mg/kg/day (gestation day 6 through lactation day 20). Maternal gestational body weights were decreased at 250 mg/kg/day, which continued to the end of lactation.

pregnant rabbits = assay: Embryo-fetal development study in pregnant rabbits; assay type: in vivo, rabbit
Description: In embryo-fetal development studies, voxelotor was administered orally to pregnant rats at 15, 50, and 250 mg/kg/day (gestation days 7 through 17) and rabbits at 25, 75, and 150 mg/kg/day (gestation days 7 through 19) through organogenesis.

OATP1A2 = OATP1A2 (Homo sapiens, UniProt P46721); assay: In vitro transporter studies: OATP1A2; assay type: in vitro ADME
rat = assay: Rat Comet assay; assay type: in vivo
Description: Voxelotor was not genotoxic in the reverse mutation bacterial (Ames) test, rat Comet assay, or rat micronucleus assay.

Protein binding in vitro = assay type: in vitro ADME
Description: Voxelotor apparent volume of distribution of the central compartment and peripheral compartment are 338 L and 72.2 L in plasma, respectively. Protein binding is 99.8% in vitro. The blood-to-plasma ratio is approximately 15:1 in patients with SCD.

BSEP = BSEP (Homo sapiens, UniProt O95342); assay: In vitro transporter studies: BSEP; assay type: in vitro ADME
[1] = Effect of acid reducing agent omeprazole on voxelotor; conditions: in vivo
Hb = assay: Pharmacodynamics: Hb oxygen affinity (p50) and clinical measures of hemolysis; assay type: in vivo
MATE1 = MATE1 (Homo sapiens, UniProt Q96FL8); assay: In vitro transporter studies: MATE1; assay type: in vitro ADME
OATP1B1 = OATP1B1 (Homo sapiens, UniProt Q9Y6L6); assay: In vitro transporter studies: OATP1B1; assay type: in vitro ADME
[2] = Probe substrate study in healthy subjects: voxelotor exposure and safety; assay type: in vivo, human; conditions: alone and in combination with caffeine, warfarin sodium, omeprazole and midazolam hydrochloride
Description: as §1, §2

[3] = Drug substance properties (solubility, hygroscopicity); assay type: physicochemical; conditions: crystalline Form II free base
Description: Voxelotor, the active drug substance, is a white-to-yellow-to-beige compound in crystalline Form II of its free base. It is non-hygroscopic.

hemoglobin S (HbS) = hemoglobin S (HbS) (Homo sapiens, UniProt P69905); assay: Mechanism of action: binding to HbS and HbS polymerization
CYP2B6 = CYP2B6 (Homo sapiens, UniProt P20813); assay: In vitro studies: CYP2B6; assay type: in vitro ADME
Chain of CYP2B6 (P20813 whole entry): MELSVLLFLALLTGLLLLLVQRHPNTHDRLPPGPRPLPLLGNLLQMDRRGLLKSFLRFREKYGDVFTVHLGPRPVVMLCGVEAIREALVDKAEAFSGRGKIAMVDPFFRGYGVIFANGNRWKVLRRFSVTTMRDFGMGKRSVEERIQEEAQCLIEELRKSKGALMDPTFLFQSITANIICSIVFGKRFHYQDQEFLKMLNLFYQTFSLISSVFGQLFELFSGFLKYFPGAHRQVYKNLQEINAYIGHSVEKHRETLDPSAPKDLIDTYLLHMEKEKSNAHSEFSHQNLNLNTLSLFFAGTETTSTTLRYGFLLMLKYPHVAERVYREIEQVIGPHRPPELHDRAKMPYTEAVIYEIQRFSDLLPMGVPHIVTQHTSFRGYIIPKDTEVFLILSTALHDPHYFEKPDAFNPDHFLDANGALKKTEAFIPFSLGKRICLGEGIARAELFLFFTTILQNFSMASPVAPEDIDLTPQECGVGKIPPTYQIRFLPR

Chain of OATP1B1 (Q9Y6L6 whole entry): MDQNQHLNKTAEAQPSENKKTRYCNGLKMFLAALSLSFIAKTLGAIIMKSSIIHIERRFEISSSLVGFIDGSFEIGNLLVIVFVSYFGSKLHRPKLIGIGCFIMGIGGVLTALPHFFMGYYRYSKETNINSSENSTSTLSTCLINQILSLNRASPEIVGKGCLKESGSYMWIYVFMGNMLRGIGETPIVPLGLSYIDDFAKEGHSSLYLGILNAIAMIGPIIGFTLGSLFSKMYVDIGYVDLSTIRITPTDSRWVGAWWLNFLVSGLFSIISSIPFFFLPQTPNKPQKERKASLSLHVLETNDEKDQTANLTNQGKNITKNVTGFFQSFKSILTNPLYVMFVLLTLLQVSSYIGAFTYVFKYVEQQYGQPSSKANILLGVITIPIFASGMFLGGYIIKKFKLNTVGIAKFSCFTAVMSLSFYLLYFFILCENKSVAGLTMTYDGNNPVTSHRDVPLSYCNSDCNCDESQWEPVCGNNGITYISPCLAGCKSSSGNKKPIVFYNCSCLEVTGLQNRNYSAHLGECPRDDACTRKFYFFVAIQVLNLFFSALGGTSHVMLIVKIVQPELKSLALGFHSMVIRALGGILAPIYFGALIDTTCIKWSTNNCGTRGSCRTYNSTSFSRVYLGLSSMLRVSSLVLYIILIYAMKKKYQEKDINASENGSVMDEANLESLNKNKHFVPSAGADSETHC
Chain of BSEP (O95342 whole entry): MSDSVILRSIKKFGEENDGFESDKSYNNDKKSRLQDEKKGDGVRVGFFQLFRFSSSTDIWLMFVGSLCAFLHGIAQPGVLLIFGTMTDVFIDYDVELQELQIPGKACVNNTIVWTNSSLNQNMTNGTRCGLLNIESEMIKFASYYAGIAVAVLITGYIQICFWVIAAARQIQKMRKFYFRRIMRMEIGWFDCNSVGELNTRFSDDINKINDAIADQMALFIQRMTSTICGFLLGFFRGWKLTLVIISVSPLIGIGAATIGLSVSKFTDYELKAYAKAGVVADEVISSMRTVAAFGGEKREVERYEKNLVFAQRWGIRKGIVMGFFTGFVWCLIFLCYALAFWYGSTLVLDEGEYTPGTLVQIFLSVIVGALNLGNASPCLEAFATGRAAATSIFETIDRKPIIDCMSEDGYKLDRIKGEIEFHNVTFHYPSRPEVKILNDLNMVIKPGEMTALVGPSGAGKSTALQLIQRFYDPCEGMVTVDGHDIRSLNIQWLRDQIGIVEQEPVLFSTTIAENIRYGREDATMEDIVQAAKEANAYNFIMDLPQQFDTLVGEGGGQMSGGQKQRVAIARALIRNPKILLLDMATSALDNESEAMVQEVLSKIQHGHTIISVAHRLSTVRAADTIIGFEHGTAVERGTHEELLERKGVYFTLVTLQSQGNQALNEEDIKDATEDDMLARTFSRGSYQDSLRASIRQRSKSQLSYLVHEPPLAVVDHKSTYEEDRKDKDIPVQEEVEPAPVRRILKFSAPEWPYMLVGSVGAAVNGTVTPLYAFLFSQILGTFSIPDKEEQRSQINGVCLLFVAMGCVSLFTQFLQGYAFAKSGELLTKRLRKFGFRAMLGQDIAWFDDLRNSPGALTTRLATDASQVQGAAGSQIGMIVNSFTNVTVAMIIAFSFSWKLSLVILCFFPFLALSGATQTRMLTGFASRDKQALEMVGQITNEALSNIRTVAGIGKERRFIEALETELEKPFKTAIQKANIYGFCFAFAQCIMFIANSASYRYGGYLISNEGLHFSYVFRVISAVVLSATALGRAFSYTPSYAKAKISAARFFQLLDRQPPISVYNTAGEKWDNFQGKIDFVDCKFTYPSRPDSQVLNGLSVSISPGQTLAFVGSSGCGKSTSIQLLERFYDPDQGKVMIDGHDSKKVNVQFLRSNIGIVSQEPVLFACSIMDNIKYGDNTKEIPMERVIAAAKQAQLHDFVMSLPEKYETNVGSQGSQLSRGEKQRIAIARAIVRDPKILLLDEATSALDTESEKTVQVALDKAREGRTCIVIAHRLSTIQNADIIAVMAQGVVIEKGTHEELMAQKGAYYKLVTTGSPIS
T1 sequence (P33261 whole entry): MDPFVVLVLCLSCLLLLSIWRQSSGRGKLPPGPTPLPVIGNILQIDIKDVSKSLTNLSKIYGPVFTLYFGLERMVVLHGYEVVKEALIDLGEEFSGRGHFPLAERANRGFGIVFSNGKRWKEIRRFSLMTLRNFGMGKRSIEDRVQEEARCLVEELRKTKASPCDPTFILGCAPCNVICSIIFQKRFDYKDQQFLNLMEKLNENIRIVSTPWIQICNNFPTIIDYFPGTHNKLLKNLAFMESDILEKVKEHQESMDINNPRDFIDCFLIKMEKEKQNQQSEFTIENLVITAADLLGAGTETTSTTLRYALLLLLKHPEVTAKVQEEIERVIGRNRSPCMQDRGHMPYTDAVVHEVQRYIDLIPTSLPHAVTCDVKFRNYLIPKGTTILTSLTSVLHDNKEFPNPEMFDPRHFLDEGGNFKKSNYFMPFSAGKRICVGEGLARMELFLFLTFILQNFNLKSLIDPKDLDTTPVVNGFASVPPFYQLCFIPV
Chain of OATP1A2 (P46721 whole entry): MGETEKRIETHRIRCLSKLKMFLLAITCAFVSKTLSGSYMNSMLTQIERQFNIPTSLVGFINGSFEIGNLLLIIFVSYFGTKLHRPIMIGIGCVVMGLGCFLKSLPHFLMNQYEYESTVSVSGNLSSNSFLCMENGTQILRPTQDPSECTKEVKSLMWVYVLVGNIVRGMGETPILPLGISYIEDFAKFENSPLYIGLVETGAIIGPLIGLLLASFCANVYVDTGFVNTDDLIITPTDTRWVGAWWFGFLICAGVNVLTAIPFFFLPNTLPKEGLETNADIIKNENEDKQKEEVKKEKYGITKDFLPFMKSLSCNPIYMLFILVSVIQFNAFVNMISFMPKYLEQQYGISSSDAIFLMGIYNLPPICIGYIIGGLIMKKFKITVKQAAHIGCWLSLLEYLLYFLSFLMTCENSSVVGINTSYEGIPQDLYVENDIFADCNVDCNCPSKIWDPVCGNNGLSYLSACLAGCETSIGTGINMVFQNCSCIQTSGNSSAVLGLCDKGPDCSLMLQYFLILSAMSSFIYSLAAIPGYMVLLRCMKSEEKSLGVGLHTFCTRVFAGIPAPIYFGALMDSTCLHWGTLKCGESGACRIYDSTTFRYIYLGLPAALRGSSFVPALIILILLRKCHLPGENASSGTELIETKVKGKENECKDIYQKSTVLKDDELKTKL
Chain of hemoglobin S (HbS) (P69905 whole entry): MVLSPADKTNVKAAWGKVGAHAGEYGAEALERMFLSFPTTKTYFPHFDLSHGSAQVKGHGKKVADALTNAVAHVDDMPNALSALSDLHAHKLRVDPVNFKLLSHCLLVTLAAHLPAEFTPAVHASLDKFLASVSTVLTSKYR
Chain of hemoglobin S (HbS) (P68871 with tags, fused parts or gaps E7V partner limits assumed): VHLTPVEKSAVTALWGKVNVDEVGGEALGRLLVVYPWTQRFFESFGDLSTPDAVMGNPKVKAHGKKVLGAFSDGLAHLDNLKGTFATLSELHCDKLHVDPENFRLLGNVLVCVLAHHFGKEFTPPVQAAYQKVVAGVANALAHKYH
Chain of MATE1 (Q96FL8 whole entry): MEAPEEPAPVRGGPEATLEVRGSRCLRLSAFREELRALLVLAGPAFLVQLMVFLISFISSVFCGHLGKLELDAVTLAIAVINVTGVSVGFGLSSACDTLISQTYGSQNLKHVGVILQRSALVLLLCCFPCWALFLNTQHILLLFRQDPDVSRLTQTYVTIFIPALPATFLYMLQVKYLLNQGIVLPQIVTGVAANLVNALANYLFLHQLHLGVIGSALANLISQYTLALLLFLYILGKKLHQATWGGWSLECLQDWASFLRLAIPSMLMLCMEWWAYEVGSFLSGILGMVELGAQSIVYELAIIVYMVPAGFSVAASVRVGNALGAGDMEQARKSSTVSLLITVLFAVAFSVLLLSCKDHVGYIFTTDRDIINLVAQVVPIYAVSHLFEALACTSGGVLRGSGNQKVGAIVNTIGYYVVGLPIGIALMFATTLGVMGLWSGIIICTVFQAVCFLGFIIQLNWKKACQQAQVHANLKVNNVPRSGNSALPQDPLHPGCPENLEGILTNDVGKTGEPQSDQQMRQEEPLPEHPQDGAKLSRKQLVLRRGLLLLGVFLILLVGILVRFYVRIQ

CC(C)n1nccc1-c1ncccc1COc1cccc(O)c1C=O [voxelotor, 2-hydroxy-6-((2-(1-isopropyl-1H-pyrazol-5-yl)pyridin-3-yl)methoxy)benzaldehyde]
exposure at 250 mg/kg/day relative to human exposure at 1,500 mg/day (rats): approximately 5 times | sperm motility (rats; 250 mg/kg/day, changes in sperm morphology also occurred): decreased | effect on fertility or reproductive function (rats; oral 15, 50, 250 mg/kg/day): no effect on fertility or reproductive function | effect on digoxin (a P-gp substrate) (P-gp): did not alter digoxin to a clinically relevant extent | inhibition of OAT3 (OAT3): not an inhibitor | effect of voxelotor on PK of CYP2C19 probe substrate (omeprazole) (CYP2C19; healthy subjects, multiple doses of voxelotor 900/600 mg QD): no clinically meaningful effect | inhibition of CYP2C19 in vivo (CYP2C19; human, in vivo): not | findings in offspring (pregnant rats; maternal dose 250 mg/kg/day, throughout lactation, weaning and maturation): reduced survival and reduced body weights | maternal gestational body weights (pregnant rats; pregnant rats, 250 mg/kg/day oral, gestation day 6 through lactation day 20): decreased | exposure at 250 mg/kg/day relative to exposure in patients at the recommended dose (pregnant rats; rats, maternal dose 250 mg/kg/day): approximately 2.8 times | adverse developmental outcomes (pregnant rabbits; pregnant rabbits, oral 25, 75, 150 mg/kg/day, gestation days 7 through 19): no adverse developmental effects; also recorded: no evidence of adverse developmental outcomes | exposure at highest dose level (maternal toxicity observed) relative to exposure in patients at the recommended daily dose (pregnant rabbits; rabbits, 150 mg/kg/day): 0.3 times | substrate of OATP1A2 (OATP1A2): not a substrate | genotoxicity (rat): not genotoxic | fraction unbound (Protein binding in vitro): 0.002 | inhibition of BSEP (BSEP): not an inhibitor | substrate of BSEP (BSEP): not a substrate | effect of co-administered omeprazole (proton pump inhibitor) on voxelotor exposure [1]: did not alter voxelotor exposure | clinical measures of hemolysis (indirect bilirubin and % reticulocytes) (Hb; in vivo): dose-dependent reduction | Hb oxygen affinity as determined by the change in p50 (Hb; linearly correlated with voxelotor exposure): dose-dependent increase in Hb oxygen affinity | inhibition of MATE1 (MATE1): not an inhibitor | inhibition of OATP1B1 (OATP1B1): not an inhibitor | substrate of OATP1B1 (OATP1B1): not a substrate | safety and tolerability [2]: safe and well tolerated | hygroscopicity [3]: non-hygroscopic | solubility in common organic solvents such as acetone and toluene [3]: highly soluble | solubility ([3]; water): ~30 µg/mL (≈ 88.9 µM) | inhibition of HbS polymerization (hemoglobin S (HbS)): dose-dependent inhibition of HbS polymerization | induction of CYP2B6 (CYP2B6): inducer | inhibition of CYP2B6 (CYP2B6): reversible and time-dependent inhibitor
